Source: patent US9422267B2, “Fused pyrimidine compounds and use thereof” (Medivation Technologies, Inc., priority 2012, dated 2016)

Assays:
[1] = biological target: T1, BMX (Homo sapiens, UniProt P51813); experiment: Caliper kinase profiling: BMX; assay type: biochemical
T1 sequence (P51813 1-675): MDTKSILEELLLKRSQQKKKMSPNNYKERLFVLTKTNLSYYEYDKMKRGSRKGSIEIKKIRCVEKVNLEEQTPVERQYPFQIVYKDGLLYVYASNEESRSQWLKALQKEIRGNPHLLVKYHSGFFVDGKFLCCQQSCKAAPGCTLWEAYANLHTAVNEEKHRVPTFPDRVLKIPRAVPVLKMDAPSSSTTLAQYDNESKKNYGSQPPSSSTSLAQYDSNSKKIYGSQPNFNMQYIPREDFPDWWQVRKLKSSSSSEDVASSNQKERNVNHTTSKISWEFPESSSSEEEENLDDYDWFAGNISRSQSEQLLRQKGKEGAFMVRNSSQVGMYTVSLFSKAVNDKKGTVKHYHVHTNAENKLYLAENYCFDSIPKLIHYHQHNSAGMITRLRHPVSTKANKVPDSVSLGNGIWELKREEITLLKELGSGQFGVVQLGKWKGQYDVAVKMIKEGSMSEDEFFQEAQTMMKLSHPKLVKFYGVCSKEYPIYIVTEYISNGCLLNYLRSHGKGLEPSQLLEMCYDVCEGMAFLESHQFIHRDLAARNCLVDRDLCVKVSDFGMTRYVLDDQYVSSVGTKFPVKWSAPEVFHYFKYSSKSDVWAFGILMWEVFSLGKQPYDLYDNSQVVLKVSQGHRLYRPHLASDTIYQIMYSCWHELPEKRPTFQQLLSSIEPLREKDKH

[2] = biological target: BTK (Homo sapiens, UniProt Q06187); experiment: Caliper kinase profiling: BTK; assay type: biochemical; conditions: read-out: Average % Inh @ 1 μM
[3] = biological target: T2, EPHA1 (Homo sapiens, UniProt P21709); experiment: Caliper kinase profiling: EPHA1; assay type: biochemical
T2 sequence (P21709 26-976): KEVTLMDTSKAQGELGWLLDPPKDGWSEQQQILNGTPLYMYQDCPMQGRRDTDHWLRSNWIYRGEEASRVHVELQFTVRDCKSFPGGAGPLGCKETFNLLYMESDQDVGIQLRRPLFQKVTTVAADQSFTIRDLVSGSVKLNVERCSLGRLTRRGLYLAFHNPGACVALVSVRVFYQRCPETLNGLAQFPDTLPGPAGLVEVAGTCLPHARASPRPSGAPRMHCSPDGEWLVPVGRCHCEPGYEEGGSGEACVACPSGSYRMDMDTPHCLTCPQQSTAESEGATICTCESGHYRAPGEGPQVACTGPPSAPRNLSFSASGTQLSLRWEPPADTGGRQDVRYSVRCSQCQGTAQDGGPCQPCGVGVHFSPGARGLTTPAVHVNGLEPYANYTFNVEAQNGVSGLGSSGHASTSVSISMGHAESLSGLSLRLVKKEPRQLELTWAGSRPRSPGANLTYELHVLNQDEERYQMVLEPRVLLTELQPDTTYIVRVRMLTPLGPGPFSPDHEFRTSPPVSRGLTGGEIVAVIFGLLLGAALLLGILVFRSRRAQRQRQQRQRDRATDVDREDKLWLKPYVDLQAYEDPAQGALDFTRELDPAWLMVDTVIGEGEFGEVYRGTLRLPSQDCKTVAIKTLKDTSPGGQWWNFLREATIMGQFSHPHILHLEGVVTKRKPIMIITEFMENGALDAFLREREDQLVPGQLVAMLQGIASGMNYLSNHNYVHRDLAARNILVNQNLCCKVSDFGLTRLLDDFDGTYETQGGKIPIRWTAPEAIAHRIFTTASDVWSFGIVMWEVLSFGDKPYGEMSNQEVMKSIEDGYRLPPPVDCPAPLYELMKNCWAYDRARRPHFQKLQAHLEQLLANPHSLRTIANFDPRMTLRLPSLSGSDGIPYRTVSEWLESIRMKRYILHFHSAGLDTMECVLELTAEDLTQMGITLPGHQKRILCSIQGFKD

[4] = biological target: EPHB4 (Homo sapiens, UniProt P54760); experiment: Caliper kinase profiling: EPHB4; assay type: biochemical; conditions: EPHB4, 1 μM; read-out: Average % Inh @ 1 μM
[5] = biological target: FES (Homo sapiens, UniProt P07332); experiment: Caliper kinase profiling: FES; assay type: biochemical; conditions: read-out: Average % Inh @ 1 μM
[6] = biological target: LYNB (Homo sapiens, UniProt P07948); experiment: Caliper kinase profiling: LYNB; assay type: biochemical
[7] = biological target: MET(M1250T) (Homo sapiens, UniProt P08581, M1250T); experiment: Caliper kinase profiling: MET(M1250T); assay type: biochemical
[8] = biological target: SRC (Homo sapiens, UniProt P12931); experiment: Caliper kinase profiling: SRC; assay type: biochemical
[9] = tested on: over 50 of the panel of 72 non-kinase targets (Table B14); experiment: Extended panel screen against non-kinase targets (LeadProfilingScreen and CYP450 assays); assay type: binding; conditions: read-out: percent inhibition for over 50 of the non-kinase targets tested
Experimental: (§1) Compound no. The experiments were performed by Ricerca Biosciences (Painesville, Ohio) using the LeadProfilingScreen and CYP450 assays. Compound no. 8b was screened at a concentration of 1 μM. No significant hits were identified.

[10] = tested on: panel of 72 non-kinase targets (Table B14), incl. CYP450; experiment: as above; assay type: binding; conditions: 72 non-kinase targets, read-out: percent inhibition of all non-kinase targets
Experimental: as §1

[11] = tested on: ZR-75-1; experiment: Cell Titer-Glo cell viability: ZR-75-1; assay type: cell-based; conditions: Homo sapiens; ZR-75-1, breast cancer; 72 h
Experimental: Compound nos. […] This panel of cell lines includes an ER− breast carcinoma, primary breast ductal carcinoma, prostate adenocarcinoma, mammary adenocarcinoma, mammary ductal carcinoma, mammary ductal carcinoma, ovary adenocarcinoma, ER+ breast carcinoma, ER-HER2+ mammary ductal carcinoma and an ER+ mammary ductal carcinoma, respectively.
(§2) This assay quantitates the ATP present in order to determine the number of viable cells in culture. Briefly, the compounds were incubated with the cells for 72 h, followed by cell lysis. The resulting luminescent signal is proportional to the amount of ATP present and, therefore, directly proportional to the number of cells present in culture.

[12] = tested on: PANC-1; experiment: Cell viability: pancreatic cancer cell line PANC-1; assay type: cell-based; conditions: Homo sapiens; PANC-1 pancreatic cancer cell line
Experimental: as §2
Analogous studies utilizing pancreatic cancer cell lines such as ASPC-1 and PANC-1 can be performed with compounds of the invention.

[13] = 10 nM, read-out: Average % Inh @ 10 nM
[14] = 100 nM, read-out: Average % Inh @ 100 nM
[15] = 1 μM, read-out: Average % Inh @ 1 μM

Sequence of MET(M1250T) (P08581 25-1390 M1250T): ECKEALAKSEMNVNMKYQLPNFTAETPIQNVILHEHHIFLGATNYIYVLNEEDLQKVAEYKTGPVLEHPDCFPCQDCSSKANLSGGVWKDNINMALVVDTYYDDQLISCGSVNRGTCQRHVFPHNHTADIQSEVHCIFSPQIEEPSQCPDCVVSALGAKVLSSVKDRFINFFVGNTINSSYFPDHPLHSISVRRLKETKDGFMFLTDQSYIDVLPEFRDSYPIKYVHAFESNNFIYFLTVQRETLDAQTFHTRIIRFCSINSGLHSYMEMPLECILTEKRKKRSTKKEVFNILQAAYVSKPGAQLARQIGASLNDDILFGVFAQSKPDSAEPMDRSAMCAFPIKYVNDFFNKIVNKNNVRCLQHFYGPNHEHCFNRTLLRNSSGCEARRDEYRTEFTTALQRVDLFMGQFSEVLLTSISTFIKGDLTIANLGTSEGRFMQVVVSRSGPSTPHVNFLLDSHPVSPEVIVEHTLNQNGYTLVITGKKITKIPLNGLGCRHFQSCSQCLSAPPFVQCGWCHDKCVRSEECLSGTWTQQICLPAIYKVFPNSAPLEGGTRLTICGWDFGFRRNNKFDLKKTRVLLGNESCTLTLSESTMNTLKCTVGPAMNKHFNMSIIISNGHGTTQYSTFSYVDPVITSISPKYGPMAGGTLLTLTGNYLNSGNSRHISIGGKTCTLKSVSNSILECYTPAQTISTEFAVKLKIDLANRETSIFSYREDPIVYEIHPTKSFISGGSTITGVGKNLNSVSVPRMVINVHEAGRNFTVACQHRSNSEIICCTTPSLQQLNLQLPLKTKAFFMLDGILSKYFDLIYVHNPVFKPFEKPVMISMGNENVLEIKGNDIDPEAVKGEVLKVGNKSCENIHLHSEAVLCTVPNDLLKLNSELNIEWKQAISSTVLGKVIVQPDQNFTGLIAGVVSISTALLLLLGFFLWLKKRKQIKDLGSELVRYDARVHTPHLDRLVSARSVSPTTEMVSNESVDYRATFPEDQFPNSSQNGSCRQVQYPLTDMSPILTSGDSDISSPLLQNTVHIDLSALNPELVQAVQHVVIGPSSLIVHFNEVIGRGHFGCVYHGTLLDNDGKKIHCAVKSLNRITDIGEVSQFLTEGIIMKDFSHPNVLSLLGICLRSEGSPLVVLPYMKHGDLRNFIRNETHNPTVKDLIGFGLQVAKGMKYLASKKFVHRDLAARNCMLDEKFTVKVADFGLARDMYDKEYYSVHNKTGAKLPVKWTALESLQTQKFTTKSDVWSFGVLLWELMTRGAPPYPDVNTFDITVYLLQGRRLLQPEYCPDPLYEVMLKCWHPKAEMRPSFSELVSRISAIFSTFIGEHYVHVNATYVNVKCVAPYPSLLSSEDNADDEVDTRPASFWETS
Sequence of LYNB (P07948 1-491 isoform P07948-2): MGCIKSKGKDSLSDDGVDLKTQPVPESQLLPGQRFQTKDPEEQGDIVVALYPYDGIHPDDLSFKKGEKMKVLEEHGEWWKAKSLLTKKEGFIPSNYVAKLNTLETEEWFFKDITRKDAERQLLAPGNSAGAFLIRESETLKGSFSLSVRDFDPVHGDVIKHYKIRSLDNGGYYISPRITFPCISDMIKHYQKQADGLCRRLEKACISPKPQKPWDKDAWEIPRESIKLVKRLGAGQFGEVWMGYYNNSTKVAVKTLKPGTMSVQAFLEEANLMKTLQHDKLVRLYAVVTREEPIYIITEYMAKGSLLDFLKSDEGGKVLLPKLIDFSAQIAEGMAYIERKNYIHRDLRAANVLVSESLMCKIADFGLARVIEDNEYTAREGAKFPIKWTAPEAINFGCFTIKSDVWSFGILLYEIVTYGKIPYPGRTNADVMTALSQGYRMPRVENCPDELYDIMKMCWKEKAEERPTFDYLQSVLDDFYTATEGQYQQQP
Sequence of SRC (P12931 whole entry): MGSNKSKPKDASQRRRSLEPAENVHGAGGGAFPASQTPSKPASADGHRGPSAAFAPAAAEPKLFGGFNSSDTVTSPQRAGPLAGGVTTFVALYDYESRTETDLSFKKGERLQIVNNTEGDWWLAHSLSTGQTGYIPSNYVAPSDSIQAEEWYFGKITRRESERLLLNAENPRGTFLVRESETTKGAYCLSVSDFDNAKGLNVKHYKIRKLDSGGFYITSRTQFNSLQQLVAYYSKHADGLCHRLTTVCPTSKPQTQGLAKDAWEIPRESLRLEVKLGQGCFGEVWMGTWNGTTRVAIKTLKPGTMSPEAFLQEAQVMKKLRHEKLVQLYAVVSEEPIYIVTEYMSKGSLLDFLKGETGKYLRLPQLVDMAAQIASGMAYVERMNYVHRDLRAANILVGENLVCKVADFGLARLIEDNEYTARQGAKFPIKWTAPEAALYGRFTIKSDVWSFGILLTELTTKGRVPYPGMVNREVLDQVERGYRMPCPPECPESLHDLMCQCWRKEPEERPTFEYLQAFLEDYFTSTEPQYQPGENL
Sequence of FES (P07332 whole entry): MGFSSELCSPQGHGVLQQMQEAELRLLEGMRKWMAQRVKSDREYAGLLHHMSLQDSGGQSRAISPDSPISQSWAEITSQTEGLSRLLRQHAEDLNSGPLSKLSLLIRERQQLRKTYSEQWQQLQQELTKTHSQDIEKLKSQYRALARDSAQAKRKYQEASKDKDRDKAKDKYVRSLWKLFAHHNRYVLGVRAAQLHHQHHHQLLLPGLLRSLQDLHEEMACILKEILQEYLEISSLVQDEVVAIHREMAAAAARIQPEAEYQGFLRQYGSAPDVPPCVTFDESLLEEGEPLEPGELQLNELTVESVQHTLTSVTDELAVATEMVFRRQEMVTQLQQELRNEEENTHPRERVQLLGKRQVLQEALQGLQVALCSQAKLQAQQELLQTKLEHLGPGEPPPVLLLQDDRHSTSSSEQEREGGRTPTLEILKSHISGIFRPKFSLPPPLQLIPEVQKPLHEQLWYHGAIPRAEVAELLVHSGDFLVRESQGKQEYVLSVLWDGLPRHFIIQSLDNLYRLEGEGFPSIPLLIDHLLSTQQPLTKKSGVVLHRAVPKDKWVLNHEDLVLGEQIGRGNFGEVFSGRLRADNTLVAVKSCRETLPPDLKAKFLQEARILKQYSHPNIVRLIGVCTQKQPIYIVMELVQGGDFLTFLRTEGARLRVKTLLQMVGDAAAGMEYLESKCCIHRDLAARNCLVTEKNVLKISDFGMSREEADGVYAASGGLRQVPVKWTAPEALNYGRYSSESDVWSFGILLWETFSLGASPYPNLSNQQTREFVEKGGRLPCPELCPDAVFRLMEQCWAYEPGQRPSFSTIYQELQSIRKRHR
Sequence of BTK (Q06187 whole entry): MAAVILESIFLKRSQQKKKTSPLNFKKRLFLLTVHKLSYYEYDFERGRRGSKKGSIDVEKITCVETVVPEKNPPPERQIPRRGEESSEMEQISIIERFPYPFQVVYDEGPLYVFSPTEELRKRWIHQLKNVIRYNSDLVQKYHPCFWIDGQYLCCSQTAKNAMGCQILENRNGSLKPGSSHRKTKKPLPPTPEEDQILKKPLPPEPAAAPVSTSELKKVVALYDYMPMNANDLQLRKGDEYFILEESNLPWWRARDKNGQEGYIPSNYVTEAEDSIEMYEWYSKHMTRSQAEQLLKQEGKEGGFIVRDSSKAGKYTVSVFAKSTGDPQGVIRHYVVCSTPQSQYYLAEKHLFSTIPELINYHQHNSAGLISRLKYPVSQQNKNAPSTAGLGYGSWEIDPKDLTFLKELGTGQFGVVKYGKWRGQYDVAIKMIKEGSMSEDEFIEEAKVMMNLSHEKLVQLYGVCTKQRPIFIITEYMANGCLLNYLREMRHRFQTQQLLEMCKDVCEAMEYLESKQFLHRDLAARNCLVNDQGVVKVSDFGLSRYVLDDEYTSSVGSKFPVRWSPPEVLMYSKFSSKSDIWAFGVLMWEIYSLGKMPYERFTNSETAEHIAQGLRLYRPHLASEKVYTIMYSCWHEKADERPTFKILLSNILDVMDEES
Sequence of EPHB4 (P54760 16-987): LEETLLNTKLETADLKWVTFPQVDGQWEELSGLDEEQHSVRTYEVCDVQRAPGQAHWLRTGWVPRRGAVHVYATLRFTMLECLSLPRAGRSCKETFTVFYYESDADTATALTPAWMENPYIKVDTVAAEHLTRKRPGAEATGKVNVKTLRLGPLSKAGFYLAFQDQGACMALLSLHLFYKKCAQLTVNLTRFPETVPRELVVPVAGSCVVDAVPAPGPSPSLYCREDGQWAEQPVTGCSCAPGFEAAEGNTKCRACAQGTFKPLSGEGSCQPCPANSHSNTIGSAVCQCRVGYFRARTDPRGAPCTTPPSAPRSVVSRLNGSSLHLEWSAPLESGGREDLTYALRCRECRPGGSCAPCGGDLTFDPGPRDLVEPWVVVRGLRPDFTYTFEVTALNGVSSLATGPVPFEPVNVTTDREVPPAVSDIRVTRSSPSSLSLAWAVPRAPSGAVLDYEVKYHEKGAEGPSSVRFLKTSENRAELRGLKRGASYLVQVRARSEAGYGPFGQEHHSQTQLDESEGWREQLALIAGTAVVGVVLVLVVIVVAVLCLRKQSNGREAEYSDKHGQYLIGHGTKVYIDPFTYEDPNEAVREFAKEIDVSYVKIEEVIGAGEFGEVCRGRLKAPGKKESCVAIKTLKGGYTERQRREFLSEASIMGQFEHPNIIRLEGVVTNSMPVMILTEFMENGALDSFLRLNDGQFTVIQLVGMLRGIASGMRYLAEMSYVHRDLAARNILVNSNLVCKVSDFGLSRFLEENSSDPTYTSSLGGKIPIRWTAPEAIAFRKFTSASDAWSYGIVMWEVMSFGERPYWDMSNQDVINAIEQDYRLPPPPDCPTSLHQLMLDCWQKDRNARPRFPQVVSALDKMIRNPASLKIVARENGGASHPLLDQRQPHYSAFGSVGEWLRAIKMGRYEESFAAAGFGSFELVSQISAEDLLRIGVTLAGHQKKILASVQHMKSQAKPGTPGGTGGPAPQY

## O=C(Nc1ccc(F)nc1)C1CCCN1c1nc2c(c(Nc3cc(C4CC4)[nH]n3)n1)CCC2 (single isomer, unassigned) [Compound 2b, 1-(4-(5-cyclopropyl-1H-pyrazol-3-ylamino)-6,7-dihydro-5H-cyclopenta[d]pyrimidin-2-yl)-N-(6-fluoropyridin-3-yl)pyrrolidine-2-carboxamide]
[1]; [13]
  inhibition at 0.01 µM: < 39%
[1]; [14]
  inhibition at 0.1 µM: < 39%
[1]; [15]
  inhibition at 1 µM: 40 to 59%
[2]
  inhibition at 1 µM: 40 to 59%
[3]; EPHA1, 10 nM, read-out: Average % Inh @ 10 nM
  inhibition at 0.01 µM: < 39%
[3]; EPHA1, 100 nM, read-out: Average % Inh @ 100 nM
  inhibition at 0.1 µM: 40 to 59%
[3]; EPHA1, 1 μM, read-out: Average % Inh @ 1 μM
  inhibition at 1 µM: > 60%
[4]
  inhibition at 1 µM: 40 to 59%
[5]
  inhibition at 1 µM: 40 to 59%
[6]; [13]
  inhibition at 0.01 µM: < 39%
[6]; [14]
  inhibition at 0.1 µM: 40 to 59%
[6]; [15]
  inhibition at 1 µM: > 60%
[7]; MET M1250T, 10 nM, read-out: Average % Inh @ 10 nM
  inhibition at 0.01 µM: < 39%
[7]; MET M1250T, 100 nM, read-out: Average % Inh @ 100 nM
  inhibition at 0.1 µM: < 39%
[7]; MET(M1250T), 1 μM, read-out: Average % Inh @ 1 μM
  inhibition at 1 µM: > 60%
[8]; [13]
  inhibition at 0.01 µM: < 39%
[8]; [14]
  inhibition at 0.1 µM: > 60%
[8]; [15]
  inhibition at 1 µM: > 60%

## CC(C)c1cc(Nc2nc(N3CCCC3C(=O)Nc3ccc(F)nc3)nc3c2CCC3)n[nH]1 (single isomer, unassigned) [Compound 8b]
[9]
  inhibition at 1 µM: < 10%
[10]
  inhibition at 1 µM: < 30%
[11]
  IC50: < 100 µM
[12]
  IC50: 3.66 µM
